Reference: patent US20100273661A1, “Methods and Kits for Predicting Treatment Response in Type II Diabetes Mellitus Patients” (SmithKline Beecham Corporation, priority 2007, published 2010)

How the values were obtained:
Assay type in all cases: in vivo, human
male subjects with T2DM = experiment: Eight week single-blind treatment study; responder defined by composite score of glycemic-lowering efficacy (FPG, fructosamine, HbA1c); conditions: responder = composite % reduction 1(%ΔFPG)+2(%ΔFructosamine)+1.5(%ΔHbA1c) greater than 30%, 8 weeks
From the text: The study described herein was relatively small-scale (75 male subjects with T2DM) and short-term (8 weeks of treatment). Serum and urine samples were obtained at pre-treatment baseline, and after 4 and 8 weeks of treatment with one of the following: placebo, rosiglitazone, metformin or glyburide. High information content nuclear magnetic resonance (NMR) and liquid chromatography/mass spectroscopy (LC/MS)-based metabolomic platforms, including polar metabolite and lipid profiling, were used to profile the serum and urine samples. A variety of multivariate analysis techniques were used to determine whether polar low molecular weight metabolites, lipids, or fatty acids, analyzed in readily accessible fluids can be used to predict drug responder status at week 8 based on their measurement at baseline or at week 4.
Male subjects aged 30 to 70 years with a documented history of stable T2DM for no more than 10 years duration were eligible for the study described herein if they had been previously treated with diet and exercise alone, monotherapy or low-dose combination therapy. Fasting plasma glucose (FPG) at screening could not exceed 225 mg/dL for subjects treated with diet and exercise alone or 180 mg/dL for subjects receiving monotherapy or low-dose combination therapy. HbA1c was required to be within 5.7 to 10.0% with the following conditions; subjects with HbA1c between 5.7 and 9% must have been diabetic for less than 5 years and treated with mono or low dose combination therapy and have a FBG of 125 to 180 mg/dL, and subjects with HbA1c between 9.1 and 10.0% must not have been treated with combination therapy. In addition, body mass index must have been within the range of 25 to 37.5 kg/m^2, for subjects aged […] years, or 25 to 35.0 kg/m^2 for subjects aged 56 to 70 years. […]
Originally, efficacy response was defined as a FPG decrease of greater than 30 mg/dl. […] Fructosamine, whose half-life is determined by that of albumin, provides a measure of integrated glucose over a period of 2-4 weeks. […]

urine citrate = experiment: Urine citrate measured by NMR at week 0 and week 8 in rosiglitazone responders and non-responders; conditions: week 8 vs week 0
Experimental: FIGS. 4A-4C show the measure of selected biomarkers in urine or serum.
Male subjects aged 30 to 70 years with a documented history of stable T2DM for no more than 10 years duration were eligible for the study described herein if they had been previously treated with diet and exercise alone, monotherapy or low-dose combination therapy. Fasting plasma glucose (FPG) at screening could not exceed 225 mg/dL for subjects treated with diet and exercise alone or 180 mg/dL for subjects receiving monotherapy or low-dose combination therapy. […]
Serum and urine samples were analyzed using various metabolomic platforms and with traditional serum biomarker (“non-omic”) measurements. Both urine and serum were measured by nuclear magnetic resonance (NMR)-based metabolic profiling. Serum samples were also analyzed by liquid chromatograph (LC)/mass spectrometry (MS) for polar metabolites and lipids, and gas chromatograph (GC)-flame ionization for fatty acids (lipidomics). […]
Citrate may play a critical role in cataplerosis (the export of mitochondrial intermediates into the cytosol and in the induction of fatty acid-derived signaling molecules) and glucose-regulated insulin release [Flamez, D. et al., Diabetes 51, 2018-2024 (2002)]. Because citrate was not quantified in plasma or liver, it is hard to pinpoint the actual biochemical context for the change in this metabolite. […]

[1] = test system: inflammation associated with obesity and diabetes; experiment: Apparent inflammation observed in the study under rosiglitazone treatment; conditions: observed in this study and also reported in the literature
From the text: Serum IL-8 at baseline was higher in responders than non-responders (p=0.032) (FIG. 4C). IL-8 is an important cytokine in the inflammatory process. It is stimulated by high glucose concentrations in endothelial cells in vitro and has chemotactic activity for polymorphonuclear neutrophils (playing an important role in the pathogenesis of chronic complications of diabetes), as well as for T-lymphocyte and smooth muscle cells. Serum IL-8 level was reported to markedly increase in diabetic patients [Zozulinska, D., et al., Diabetologia 42, 117-118 (1999)]. […] Thus, it seems consistent that subjects with higher IL-8 levels were more responsive to rosiglitazone treatment.

| SMILES | Fractions of responders in each treatment after eight weeks of treatment (male subjects with T2DM) | change in level of urine citrate after 8 week treatment, non-responder subjects (urine citrate; non-responders (n=12)) | change in level of urine citrate after 8 week treatment, responder group (urine citrate; responders (n=9)) | effect of treatment on apparent inflammation [1] |
| --- | --- | --- | --- | --- |
| COc1ccc(Cl)cc1C(=O)NCCc1ccc(S(=O)(=O)NC(=O)NC2CCCCC2)cc1 [Glyburide, 5-chloro-N-[2-[4-(cyclohexylcarbamoylsulfamoyl)phenyl]ethyl]-2-methoxy-benzamide] | 0.60 | – | – | – |
| CN(C)C(=N)N=C(N)N [Metformin] | 0.53 | – | – | – |
| CN(CCOc1ccc(CC2SC(=O)NC2=O)cc1)c1ccccn1 (stereo not drawn) [Rosiglitazone, 5-[[4-[2-(methyl-pyridin-2-yl-amino)ethoxy]phenyl]methyl]thiazolidine-2,4-dione] | 0.43 | did not change | did increase urine citrate (not statistically significant) | reduce apparent inflammation |
